Measured values taken from ChEMBL document CHEMBL5241097, “Synthetically-tailored and nature-derived dual COX-2/5-LOX inhibitors: Structural aspects and SAR” (Eur J Med Chem, 2021).
Values belong to the molecule of their own block, whether it stands above or below them.

Experiments:
[1] = molecular target: T1, Polyunsaturated fatty acid 5-lipoxygenase (Homo sapiens, UniProt P09917); assay: Inhibition of recombinant human 5-LOX using arachidonic acid as substrate incubated for 10 mins by spectrophotometric analysis
T1 sequence (P09917 whole entry): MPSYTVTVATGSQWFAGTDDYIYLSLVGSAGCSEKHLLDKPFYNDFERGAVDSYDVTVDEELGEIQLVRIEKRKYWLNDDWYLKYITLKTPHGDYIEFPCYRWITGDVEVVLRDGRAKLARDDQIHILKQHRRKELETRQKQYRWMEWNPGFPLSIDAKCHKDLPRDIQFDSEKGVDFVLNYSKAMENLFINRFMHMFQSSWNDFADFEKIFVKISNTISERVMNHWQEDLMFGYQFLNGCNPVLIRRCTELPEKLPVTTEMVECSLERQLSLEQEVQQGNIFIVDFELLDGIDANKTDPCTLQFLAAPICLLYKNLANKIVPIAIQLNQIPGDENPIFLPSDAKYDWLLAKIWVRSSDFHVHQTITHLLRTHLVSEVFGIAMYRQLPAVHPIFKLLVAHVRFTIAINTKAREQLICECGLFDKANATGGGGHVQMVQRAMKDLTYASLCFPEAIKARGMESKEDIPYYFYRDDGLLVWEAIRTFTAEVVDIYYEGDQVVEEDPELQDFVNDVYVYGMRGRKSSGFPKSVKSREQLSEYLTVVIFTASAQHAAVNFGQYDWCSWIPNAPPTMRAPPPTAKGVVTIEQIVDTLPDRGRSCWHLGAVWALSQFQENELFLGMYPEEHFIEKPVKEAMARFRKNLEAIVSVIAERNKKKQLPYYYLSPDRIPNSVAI

[2] = molecular target: T2, Prostaglandin G/H synthase 2 (Homo sapiens, UniProt P35354); assay: Inhibition of recombinant human COX-2 using arachidonic acid as substrate preincubated for 10 mins followed by substrate addition and measured after 2 mins by Ellman's reagent based ELISA
T2 sequence (P35354 whole entry): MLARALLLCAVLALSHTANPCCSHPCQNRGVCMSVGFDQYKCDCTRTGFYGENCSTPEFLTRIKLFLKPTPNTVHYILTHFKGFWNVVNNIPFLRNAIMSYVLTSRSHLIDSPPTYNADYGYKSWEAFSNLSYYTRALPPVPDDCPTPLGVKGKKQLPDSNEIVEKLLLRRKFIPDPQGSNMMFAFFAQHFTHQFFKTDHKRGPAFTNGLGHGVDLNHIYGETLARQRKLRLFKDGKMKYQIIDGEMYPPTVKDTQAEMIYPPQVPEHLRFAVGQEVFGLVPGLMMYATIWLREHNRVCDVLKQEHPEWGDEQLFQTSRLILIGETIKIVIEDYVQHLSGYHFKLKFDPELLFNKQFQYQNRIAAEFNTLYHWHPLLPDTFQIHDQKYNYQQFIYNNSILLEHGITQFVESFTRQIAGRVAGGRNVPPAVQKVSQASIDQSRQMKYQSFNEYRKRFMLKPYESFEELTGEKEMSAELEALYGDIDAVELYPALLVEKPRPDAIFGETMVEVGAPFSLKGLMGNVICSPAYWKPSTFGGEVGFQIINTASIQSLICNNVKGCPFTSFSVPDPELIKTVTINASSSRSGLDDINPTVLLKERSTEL

[3] = tested on: Rattus norvegicus; assay: Antiinflammatory activity in Wistar rat carragenan-induced paw edema model assessed as reduction in edema thickness at 50 mg/kg, po and measured after 2 hrs; type: functional; design: scale not given: the % may be the effect or the level left
[4] = molecular target: T2, Prostaglandin G/H synthase 2; assay: Inhibition of COX-2 (unknown origin) using arachidonic acid as substrate preincubated for 5 mins followed by substrate addition by colorimetric assay
[5] = molecular target: T1, Polyunsaturated fatty acid 5-lipoxygenase; assay: Inhibition of 5-LOX (unknown origin) by colorimetric assay
[6] = molecular target: T2, Prostaglandin G/H synthase 2; assay: Inhibition of COX-2 (unknown origin)
[7] = molecular target: T2, Prostaglandin G/H synthase 2; assay: Inhibition of COX-2 (unknown origin) by 2,7-dichlorofluorescein dye based spectrophotometric method
[8] = molecular target: T1, Polyunsaturated fatty acid 5-lipoxygenase; assay: Inhibition of 5-LOX (unknown origin) by spectrophotometric method
[9] = molecular target: T2, Prostaglandin G/H synthase 2; assay: Inhibition of COX-2 (unknown origin) using arachidonic acid as substrate preincubated for 15 mins followed by substrate addition by colorimetric assay
[10] = Inhibition of soybean 5-LOX using linoleic acid as substrate by spectrophotometric analysis; design: species or system Glycine max
[11] = molecular target: T1, Polyunsaturated fatty acid 5-lipoxygenase; assay: Inhibition of recombinant human 5-LOX using arachidonic acid as substrate preincubated for 10 mins followed by substrate addition and measured after 10 mins by ELISA
[12] = molecular target: T2, Prostaglandin G/H synthase 2; assay: Inhibition of recombinant human COX-2 using arachidonic acid as substrate preincubated for 5 mins followed by substrate addition and measured after 20 mins by ELISA
[13] = molecular target: T2, Prostaglandin G/H synthase 2; assay: Inhibition of recombinant human COX-2 by enzyme immune assay
[14] = Selectivity index, ratio IC50 for inhibition of ovine COX-1 to IC50 for inhibition of recombinant human COX-2
[15] = tested on: Rattus norvegicus; assay: Antiinflammatory activity in carragenan-induced paw edema rat model assessed as reduction in edema thickness at 28 microg/kg, ip and measured after 4 hrs by digital Vernier caliper analysis; type: functional; design: scale not given: the % may be the effect or the level left; settings: dose 28 µg/kg
[16] = molecular target: T1, Polyunsaturated fatty acid 5-lipoxygenase; assay: Inhibition of 5-LOX (unknown origin) by enzyme immune assay
[17] = molecular target: T1, Polyunsaturated fatty acid 5-lipoxygenase; assay: Inhibition of 5-LOX (unknown origin)
[18] = tested on: Rattus norvegicus; assay: Antiinflammatory activity in Wistar rat assessed as reduction in carragenan-induced paw edema at 10 mg/kg, po for 7 days followed by carrageenan stimulation and measured upto 6 hrs by vernier caliper method; type: functional; design: scale not given: the % may be the effect or the level left; settings: time 7 day
[19] = species on record: Homo sapiens; assay: Selectivity index, ratio of IC50 for inhibition of human COX1 to IC50 for inhibition of human COX2
[20] = Inhibition of potato 5-LOX using linoleic acid as substrate preincubated for 5 mins followed by substrate addition and measured after 5 mins by spectrophotometric assay; design: species or system Solanum tuberosum
[21] = molecular target: T3, Prostaglandin G/H synthase 1 (Homo sapiens, UniProt P23219); assay: Inhibition of human COX-1 using arachidonic acid as substrate preincubated for 10 mins followed by substrate addition and measured after 2 mins by ELISA
[22] = molecular target: T1, Polyunsaturated fatty acid 5-lipoxygenase; assay: Inhibition of 5-LOX (unknown origin) by fluorometric analysis
[23] = molecular target: T3, Prostaglandin G/H synthase 1; assay: Inhibition of recombinant human COX-1 using arachidonic acid as substrate by ELISA
[24] = molecular target: T2, Prostaglandin G/H synthase 2; assay: Inhibition of recombinant human COX-2 using arachidonic acid as substrate by ELISA
[25] = molecular target: T1, Polyunsaturated fatty acid 5-lipoxygenase; assay: Inhibition of 5-LOX (unknown origin) using linoleic acid as substrate preincubated for 5 mins followed by substrate addition by spectrophotometric assay
[26] = tested on: DU-145; assay: Antiproliferative activity against human DU-145 cells assessed as reduction in cell viability incubated for 48 hrs by MTT assay; type: functional, cell-based; settings: DU-145, 48 h

T3 sequence (P23219 whole entry): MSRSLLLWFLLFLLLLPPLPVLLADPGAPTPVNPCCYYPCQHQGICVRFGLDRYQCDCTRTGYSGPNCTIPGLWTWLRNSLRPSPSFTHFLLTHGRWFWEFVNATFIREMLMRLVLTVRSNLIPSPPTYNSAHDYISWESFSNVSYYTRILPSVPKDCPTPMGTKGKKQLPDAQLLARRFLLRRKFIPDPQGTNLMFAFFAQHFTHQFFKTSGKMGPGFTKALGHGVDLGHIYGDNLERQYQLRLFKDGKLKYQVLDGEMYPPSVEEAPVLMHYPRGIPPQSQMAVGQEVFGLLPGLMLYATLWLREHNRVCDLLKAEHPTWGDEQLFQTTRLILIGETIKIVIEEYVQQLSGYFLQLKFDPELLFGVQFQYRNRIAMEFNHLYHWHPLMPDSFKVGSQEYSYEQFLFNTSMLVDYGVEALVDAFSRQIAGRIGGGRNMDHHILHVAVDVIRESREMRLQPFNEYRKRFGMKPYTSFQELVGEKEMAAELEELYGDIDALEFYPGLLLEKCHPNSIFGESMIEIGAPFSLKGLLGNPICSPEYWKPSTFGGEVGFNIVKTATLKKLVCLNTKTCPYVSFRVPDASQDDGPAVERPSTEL

SMILES: CC1=CCCC2C1(C)CCC(C)C2(C)CCC1=CC(=O)OC1O (centres undefined)
IC50 [1]: 14.4 µM
IC50 [2]: 10.3 µM

SMILES: N=C1/C(=N\Nc2ccc(S(N)(=O)=O)cc2)C(N)=NN1c1ccccc1C(=O)O
Activity [3]: 15%
IC50 [4]: 1.12 µM
IC50 [5]: 2.73 µM

SMILES: O=C(O)c1ccc(O)c(O)c1 [PROTOCATECHUIC ACID]
IC50 [6]: 25.4 µM

SMILES: CON(C)C(=O)c1ccc(-c2nc(CSc3nc4ccccc4s3)no2)cc1
IC50 [9]: 7.6 µM
IC50 [10]: 5.1 µM

SMILES: COc1cc(/C=C/c2ccc(O)cc2)cc(OC)c1 [PTEROSTILBENE]
IC50 [11]: 1.63 µM
IC50 [12]: 5.99 µM

SMILES: N=C1/C(=N\Nc2ccc(S(N)(=O)=O)cc2)C(N)=NN1c1ccc(S(N)(=O)=O)cc1
IC50 [4]: 0.92 µM
IC50 [5]: 2.78 µM

SMILES: O=C(NC1CCCCC1)c1cc(NCc2cc(O)ccc2O)ccc1O
IC50 [13]: 0.1 µM
Activity [15]: 114.12%

SMILES: COc1cc(C(=O)O)cc(O)c1O
IC50 [6]: 23.4 µM

SMILES: COc1cc([C@@H]2c3cc4c(cc3[C@@H](O[C@@H]3O[C@@H]5CO[C@@H](C)O[C@H]5[C@H](O)[C@H]3O)[C@H]3COC(=O)[C@H]23)OCO4)cc(OC)c1O [ETOPOSIDE]
IC50 [26]: 9.8 µM

SMILES: CC1=NN(c2ccc(S(N)(=O)=O)cc2)C(=O)/C1=N/Nc1ccc(C(=O)O)cc1
Activity [3]: 72.72%
IC50 [4]: 0.77 µM
IC50 [5]: 0.53 µM

More lines, main results first:

IC50 [7]: 2380 µM
IC50 [8]: 2580 µM
SMILES: CCCCC(=O)OCC[C@@H]1CC=C[C@@H]2[C@H]1C(=O)O[C@@]2(C)CO

IC50 [9]: 5 µM
IC50 [10]: 5.6 µM
SMILES: O=C(c1ccc(-c2nc(CSc3nc4ccccc4s3)no2)cc1)N1CCOCC1

IC50 [13]: 0.1 µM
Ratio IC50 [14]: 145
IC50 [16]: 11.9 µM
SMILES: CCCCCCNC(=O)c1cc(NCc2cc(O)ccc2O)ccc1O
Activity [15]: 40.05%

IC50 [4]: 0.72 µM
IC50 [5]: 0.52 µM
SMILES: CC1=NN(c2ccccc2C(=O)O)C(=O)/C1=N/Nc1ccc(S(N)(=O)=O)cc1
Activity [3]: 72.72%

IC50 [17]: 54 µM
SMILES: O=C1N/C(=N\c2nc(-c3ccccc3)cs2)S/C1=C\c1ccc(Cl)cc1

Ratio IC50 [19]: 61.7
IC50 [20]: 0.38 µM
IC50 [21]: 5.55 µM
SMILES: Cc1ccc(-c2nc(N(c3ccccc3)c3ccccc3)sc2C(=O)c2cccs2)cc1
Activity [18]: 60.82%

IC50 [11]: 0.39 µM
SMILES: Oc1cc(O)cc(/C=C/c2ccc(O)c(O)c2)c1 [PICEATANNOL]

Ratio IC50 [19]: 91.3
SMILES: Cc1ccc(-c2ncc(Cl)cc2-c2ccc(S(C)(=O)=O)cc2)cn1

IC50 [22]: 2.3 µM
IC50 [23]: 0.668 µM
IC50 [24]: 0.047 µM
SMILES: COc1cc(/C=c2\c(=O)[nH]n3c(=O)c4ccccc4nc23)cc(OC)c1OC

Ratio IC50 [19]: 7.61
IC50 [25]: 5.91 µM
SMILES: Cc1c(C(=O)N2CCN(c3ccccc3)CC2)nc2ccc(Cl)cc2c1O

IC50 [1]: 16.5 µM
IC50 [2]: 12.8 µM
SMILES: C=C1C(O)CCC2C1(C)CCC(C)C2(C)CCC1=CC(=O)OC1O (centres undefined)
